Measurements published in patent US8729055B2, “Ursolic acid derivative and pharmaceutical composition thereof” (Kaohsiung Medical University, priority 2010, dated 2014).

Tests used:
accumulation of NO2− = experiment: Experiment A: accumulation of NO2− (Griess reaction); type: cell-based, rat; settings: inhibition of accumulation of NO2−
Protocol: (§1) This example illustrates the anti-inflammatory activities of compounds 5, 7-11, 20 and 21. The anti-inflammatory activities of compounds 5, 7-11, 20 and 21 are studied in vitro for their inhibitory effects on chemical mediators released from neutrophils, mast cells or macrophages of rat.
(§2) Please refer to Table 2, which illustrates the inhibitory effects of compounds 5, 7-11, 20 and 21 on the accumulation of NO2^− (Experiment A), superoxide anion formation (n mol/10^6 cells/30 min) from rat neutrophils stimulated with PMA (Experiment B), and the release of β-glucuronidase from rat peritoneal mast cells stimulated with compound 48/80 (Experiment C). In Table 2, when 50% inhibition could not be reached at the highest concentration, the percentage of inhibition at 30 μM is given.
In the Experiment A, Nitric oxide (NO) in the cell medium is determined by the Griess reaction, and N-(3-aminomethyl)benzylamide (1400 W) is used as a positive control.

[1] = test system: rat peritoneal mast cells stimulated with compound 48/80; experiment: Experiment C: release of β-glucuronidase from rat peritoneal mast cells stimulated with compound 48/80; type: cell-based; settings: 30 μM; given when 50% inhibition not reached
Protocol: as §1, §2
In the Experiment C, Heparinized Tyrode's solution is injected into the peritoneal cavity of exsanguinated rat (Sprague-Dawley, 250-300 g). After abdominal massage, cells in the peritoneal fluid are harvested and then separated in 38% bovine serum albumin (BSA) in glucose-free Tyrode's solution. […] Fifteen min after the addition of compound 48/80 ([…]), β-glucuronidase (phenolphthalein-β-glucuronide as substrate, 550 nm) in the supernatant is determined. The total content of β-glucuronidase is measured after treatment of the cell suspension with Triton X-100, and the percentage release is calculated. […]

[2] = test system: NTUB1 cells (human bladder cancer cell line); experiment: MTT cytotoxicity assay against NTUB1 cells; type: cell-based
Protocol: In the present embodiment, cell culture and MTT assay is used for cell viability/proliferation. NTUB1, a human bladder cancer cell line, is established from a high-grade bladder cancer. […] The cells are cultured at 37° C. in a humidified atmosphere containing 5% CO2. […] Briefly, the cells are plated at a density of 1800 cells/well in 96-well plates and incubated at 37° C. overnight before drug exposure. Cells are then cultured in the presence of graded concentrations of the test compound with or without various concentrations of cisplatin (Pharmacia & Upjohn, Milan, Italy) at 37° C. for 72 h. At the end of the culture period, 50 μL of MTT (2 mg/mL in PBS) is added to each well and allowed to react for 3 h. Following centrifugation of plates at 1000 g for 10 min, media are removed and 150 μL DMSO are added to each well. The proportions of surviving cells are determined by absorbance spectrometry at 540 nm using […]) microplate reader. The cell viability is expressed as a percentage to the viable cells of control culture condition. The IC50s of each group are calculated by the […] analysis and presented as mean±standard deviation (SD). […] In Table 1, data are presented as mean±SD (n=5). […] The control cells are treated with culture medium containing 0.1% DMSO. Cisplatin is used as a positive control.

[3] = test system: microtubule assembly in NTUB1 cells; experiment: Microtubule assembly by indirect immunofluorescence staining in NTUB1 cells; type: cell-based, human; settings: 10 nM taxol, FIG. 5(B)
Protocol: All inhibition of tubulin polymerization has been implicated in G2/M phase cell cycle arrest in various cancer cell lines. Accordingly, whether treatment of cells with 20 μM compound 23 for 48 h affects in vivo microtubular architecture is investigated in the present example. Microtubule assembly is analyzed by indirect immunofluorescence staining using an anti-tubulin antibody (Santa Cruz Biotechnology, Santa Cruz, Calif., USA).
NTUB1 cells plated on coverslips are treated with no compound as control, 10 nM taxol, 50 μM compound 23 for 24 h. After treatment, cells are fixed with 2% formaldehyde/PBS for 20 min, washed with PBS, and cold methanol (−20° C.) for 3 min. After washing with PBS, cells are added anti-α-tubulin monoclonal antibody (Sigma, Co) in PBS and incubated for 3 h at room temperature. Then cells are washed with PBS and reincubated with Rodamine-conjugated secondary antibody (Sigma, Co) in dark room for 1 h at room temperature. After being washed with PBS, coverslips are mounted with 80% glycerol in PBS and examined with Axioskop 2 plus fluorescence microscope.
Please refer to FIGS. 5(A) to 5(C), which are diagrams showing the effects of taxol and compound 23 on microtubule assembly, wherein the cellular microtubules are observed by Axioskop 2 plus fluorescence microscope.

Row | Structure (SMILES) | IC50 (accumulation of NO2−) | percentage of inhibition at 30 μM, C β-glucuronidase [1] | IC50 ([2]; NTUB1 cells, MTT, 72 h, mean±SD (n=5)) | % of viability at the highest concentration ([2]; NTUB1 cells, given when 50% inhibition not reached at the highest concentration (30 μM)) | cytotoxic activity against NTUB1 cells, in words ([2]; comparison with the parent compound, from Table 1) | effect on microtubule assembly [3]
1 | C=C(C)[C@@H]1CC[C@]2(C)[C@H](CC=C3[C@@H]4[C@@H](C)[C@H](C)CC[C@]4(C(=O)O)CC[C@]32C)[C@@]1(C)CCC(=O)OC [Compound 21, Methyl 3,4-seco-ursan-4(23), 12-dien-28-oic 3-oat] | 15.6 ± 2.5 µM | 29.3 ± 2.1% | > 30 µM | 62.77% | weakens cytotoxic activities | –
2 | CC(=O)O[C@H]1C(=O)[C@@]2(C)[C@H]([C@H](OC(=O)c3ccccc3)[C@]3(O)C[C@H](OC(=O)[C@H](O)[C@@H](NC(=O)c4ccccc4)c4ccccc4)C(C)=C1C3(C)C)[C@]1(OC(C)=O)CO[C@@H]1C[C@@H]2O [taxol] | – | – | – | – | – | distinctive microtubule bundle
